Test results taken from article PMC10646256, “Scutellarin Rescued Mitochondrial Damage through Ameliorating Mitochondrial Glucose Oxidation via the Pdk‐Pdc Axis” (Advanced Science, 2023).

Target: pyruvate dehydrogenase kinase 2 (PDK2) (Homo sapiens, UniProt Q15119)
Experiment: mobility shift kinase assay with purified GST-PDK2; supported by DARTS, CETSA, co-IP-MS and LiP-MS
Format: biochemical

Compound: O=C(O)[C@H]1O[C@@H](Oc2cc3oc(-c4ccc(O)cc4)cc(=O)c3c(O)c2O)[C@H](O)[C@@H](O)[C@@H]1O [SG, Scutellarin]
- mobility shift kinase assay with purified GST-PDK2; supported by DARTS, CETSA, c: SG had significantly higher inhibitory activity against PDK2 than DCA at multiple concentrations
